# In patent US7307145B2, “Sodium-independent transporter transporting small-sized neutral amino acid, gene thereof and method of analyzing transporter function by constructing fused proteins enabling the specification of the function” (Japan Science and Technology Agency, priority 2001, dated 2007):
# T1: Asc-2-rBAT (Mus musculus, UniProt Q8VIE6+Q91WV7)
# T1 construct: expressed in transfected cells; host or cells: oocyte injected with cRNA
# T1 sequence (Q8VIE6+Q91WV7 with tags, fused parts or gaps): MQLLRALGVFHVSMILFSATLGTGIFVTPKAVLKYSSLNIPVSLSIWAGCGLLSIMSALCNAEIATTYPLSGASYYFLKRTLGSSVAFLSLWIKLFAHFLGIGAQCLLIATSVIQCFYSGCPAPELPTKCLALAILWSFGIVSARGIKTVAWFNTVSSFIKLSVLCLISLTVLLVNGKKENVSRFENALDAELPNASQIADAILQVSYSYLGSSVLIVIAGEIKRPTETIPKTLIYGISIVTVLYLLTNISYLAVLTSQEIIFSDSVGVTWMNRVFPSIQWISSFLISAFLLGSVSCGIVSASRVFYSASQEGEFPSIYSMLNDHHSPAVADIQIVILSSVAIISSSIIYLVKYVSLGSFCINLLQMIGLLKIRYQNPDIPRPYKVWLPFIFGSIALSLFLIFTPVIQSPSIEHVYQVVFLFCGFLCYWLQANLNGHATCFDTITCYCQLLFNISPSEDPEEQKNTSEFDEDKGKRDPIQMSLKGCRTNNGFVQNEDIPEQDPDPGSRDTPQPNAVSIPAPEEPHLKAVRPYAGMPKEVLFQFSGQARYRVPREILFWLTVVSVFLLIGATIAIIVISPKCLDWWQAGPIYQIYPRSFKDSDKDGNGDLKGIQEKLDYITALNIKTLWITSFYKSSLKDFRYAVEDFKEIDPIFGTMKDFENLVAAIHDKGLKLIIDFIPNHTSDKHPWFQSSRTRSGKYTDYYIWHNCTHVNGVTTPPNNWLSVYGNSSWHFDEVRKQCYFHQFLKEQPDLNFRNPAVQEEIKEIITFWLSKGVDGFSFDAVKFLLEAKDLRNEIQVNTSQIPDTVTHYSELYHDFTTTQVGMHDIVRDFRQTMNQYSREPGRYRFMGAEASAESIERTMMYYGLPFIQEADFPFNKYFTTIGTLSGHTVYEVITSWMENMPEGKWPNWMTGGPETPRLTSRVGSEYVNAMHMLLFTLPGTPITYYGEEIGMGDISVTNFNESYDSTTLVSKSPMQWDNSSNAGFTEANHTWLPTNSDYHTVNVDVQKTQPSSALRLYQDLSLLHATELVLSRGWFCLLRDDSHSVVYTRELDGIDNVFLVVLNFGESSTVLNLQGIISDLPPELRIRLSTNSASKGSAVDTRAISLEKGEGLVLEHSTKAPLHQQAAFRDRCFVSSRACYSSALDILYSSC
# How the values were obtained:
# [1] = biological target: T1, Asc-2-rBAT; assay: Inhibition test: 14C-serine uptake by oocytes expressing Asc-2-rBAT with added amino acids and analogues; assay type: cell-based; details: 14C-serine 5 μM; non-labeled compound 500 μM; Na+-free uptake solution
# Procedure: In a serine uptake test in an oocyte into which a cRNA of the gene of the fusion protein of the Asc-2 with the rBAT (Asc-2-rBAT) was injected, the effect of amino acids and their analogues on the system was investigated.
# The serine uptake test was conducted using the oocyte into which a cRNA of the gene of the fusion protein of the Asc-2 with the rBAT (Asc-2-rBAT) was injected in accordance with the method in Section (2) in Example 2 described above. Nevertheless, the test was conducted using as a sodium-free uptake solution (Na^+-free uptake solution), and the ^14C-serine (5 μM) uptake was measured in the presence or absence of various compounds (non-labeled) at 500 μM.
# [2] = test system: Asc-2 fusion protein with the 4F2hc or rBAT; assay: Transport of amino acids by Asc-2 expressed on the cell membrane as fusion protein with 4F2hc or rBAT (summary statement); assay type: cell-based, mouse; details: Asc-2 fused with 4F2hc or rBAT
# Text: In addition, L-methionine, L-leucine, L-isoleucine, L-valine, L-phenylalanine, L-tyrosine, L-histidine, D-serine and D-alanine are also transported at a low affinity.
# [3] = biological target: T1, Asc-2-rBAT; assay: Uptake test of radiolabeled amino acids and analogues as substrates by oocytes expressing Asc-2-rBAT; assay type: cell-based; details: Asc-2-rBAT oocyte; 14C compound as substrate
# Procedure: Using various amino acids and their analogues as substrates, the uptake by an oocyte into which a cRNA of the gene of the fusion protein of the Asc-2 with the rBAT (Asc-2-rBAT) had been injected was investigated.
# The uptake test of various amino acids and their analogues was conducted using the oocyte into which a cRNA of the gene of the fusion protein of the Asc-2 with the rBAT (Asc-2-rBAT) had been injected in accordance with the method in Section (2) in Example 2 described above. Nevertheless, the test was conducted using as a substrate various compounds which were radiolabeled instead of ^14C-serine.
# [4] = biological target: T1, Asc-2-rBAT; assay: Michaelis-Menten test of amino acid uptake by Xenopus oocytes injected with Asc-2-rBAT fusion protein cRNA; assay type: cell-based; details: Asc-2-rBAT expressed in oocyte; serine = 1.00; mean ± standard error, n=3
# Procedure: (§1) A Michaelis-Menten pharmacodynamic test of a sodium-independent transporter Asc-2 transporting small-sized neutral amino acid was conducted. By investigating the change in the ratio of serine uptake by the difference in the substrate serine concentration, the Michaelis-Menten pharmacodynamic test of the Asc-2 was conducted.
# (§2) The serine uptake test was conducted using the oocyte into which a cRNA of the gene of the fusion protein of the Asc-2 with the 4F2hc or the rBAT (Asc-2-4F2hc or Asc-2-rBAT) was injected in accordance with the method in Section (2) in Example 2 described above.
# (§3) The Michaelis-Menten pharmacodynamic tests were conducted also for the amino acids, other than serine, which also serve as the substrates for the Asc-2, and the Km and Vmax values were calculated and are shown in the following Table 1.
# [5] = test system: T2, N[C@@H](CO)C(=O)O; assay: Michaelis-Menten test of serine uptake by Xenopus oocytes injected with Asc-2-4F2hc fusion protein cRNA; assay type: cell-based, mouse; details: other: Asc-2-4F2hc expressed in oocyte
# T2 construct: expressed in transfected cells; host or cells: oocyte injected with cRNA
# Procedure: as §1, §2
# [6] = substrate: N[C@@H](CS)C(=O)O; assay: Michaelis-Menten test of amino acid uptake by Xenopus oocytes injected with Asc-2-rBAT fusion protein cRNA; assay type: cell-based, mouse; details: other: Asc-2-rBAT expressed in oocyte; mean ± standard error, n=3
# Procedure: as §1, §2, §3
# [7] = substrate: CC(C)[C@H](N)C(=O)O; assay: as above; assay type: cell-based, mouse; details: other: Asc-2-rBAT expressed in oocyte; mean ± standard error, n=3
# Procedure: as §1, §2, §3
# [8] = substrate: N[C@@H](CO)C(=O)O; assay: as above; assay type: cell-based, mouse; details: other: Asc-2-rBAT expressed in oocyte; mean ± standard error, n=3
# Procedure: as §1, §2, §3
# [9] = substrate: CC(C)C[C@H](N)C(=O)O; assay: as above; assay type: cell-based, mouse; details: other: Asc-2-rBAT expressed in oocyte; mean ± standard error, n=3
# Procedure: as §1, §2, §3
# [10] = substrate: NCC(=O)O; assay: cells, lysate or membranes; details: other: Asc-2-rBAT expressed in oocyte; mean ± standard error, n=3
# [11] = substrate: C[C@@H](O)[C@H](N)C(=O)O; assay: cells, lysate or membranes; details: other: Asc-2-rBAT expressed in oocyte; mean ± standard error, n=3
# [12] = substrate: C[C@H](N)C(=O)O; assay: cells, lysate or membranes; details: other: Asc-2-rBAT expressed in oocyte; mean ± standard error, n=3
Molecule,Effect on Asc-2-rBAT-mediated 14C-serine uptake (cis-inhibition) [1],Affinity of transport by Asc-2 fusion protein [2],Vmax (ratio to the Vmax of serine) [4],further results
"NC1(C(=O)O)CC2CCC1C2 (centres unmarked) [BCH, 2-amino-2-norbornane-carboxylic acid]",no effect,–,–,–
C[C@@H](N)C(=O)O [D-alanine],–,low affinity,–,–
N[C@H](CO)C(=O)O [D-serine],–,low affinity,–,–
NCC(=O)O [Glycine],inhibited potently,high affinity,1.18 ± 0.05,Uptake of radiolabeled compound into the oocyte [3]: substantial uptake
C[C@H](N)C(=O)O [L-Alanine],inhibited potently,high affinity,0.83 ± 0.08,Uptake of radiolabeled compound into the oocyte [3]: substantial uptake
N[C@@H](CS)C(=O)O [L-Cysteine],inhibited potently,high affinity,0.19 ± 0.03,–
CC(C)C[C@H](N)C(=O)O [L-Leucine],–,low affinity,1.17 ± 0.11,–
N[C@@H](CO)C(=O)O [L-Serine],inhibited potently,high affinity,(1.00),Uptake of radiolabeled compound into the oocyte [3]: substantial uptake
C[C@@H](O)[C@H](N)C(=O)O [L-Threonine],inhibited potently,high affinity,0.53 ± 0.06,Uptake of radiolabeled compound into the oocyte [3]: substantial uptake
CC(C)[C@H](N)C(=O)O [L-Valine],–,low affinity,0.79 ± 0.22,–
N[C@@H](Cc1c[nH]cn1)C(=O)O [L-histidine],–,low affinity,–,–
CC[C@H](C)[C@H](N)C(=O)O [L-isoleucine],–,low affinity,–,–
CSCC[C@H](N)C(=O)O [L-methionine],–,low affinity,–,–
N[C@@H](Cc1ccccc1)C(=O)O [L-phenylalanine],–,low affinity,–,–
N[C@@H](Cc1ccc(O)cc1)C(=O)O [L-tyrosine],–,low affinity,–,–
NCCCC(=O)O [γ-aminoisoyric acid],no effect,–,–,–
Asc-2-4F2hc (Mus musculus),–,–,–,Km [5]: 2.10 µM
α-aminoisometylic acid,no effect,–,–,–
"Asc-2-rBAT (Mus musculus) (protein, expressed in transfected cells; host or cells: oocyte injected with cRNA) MQLLRALGVFHVSMILFSATLGTGIFVTPKAVLKYSSLNIPVSLSIWAGCGLLSIMSALCNAEIATTYPLSGASYYFLKRTLGSSVAFLSLWIKLFAHFLGIGAQCLLIATSVIQCFYSGCPAPELPTKCLALAILWSFGIVSARGIKTVAWFNTVSSFIKLSVLCLISLTVLLVNGKKENVSRFENALDAELPNASQIADAILQVSYSYLGSSVLIVIAGEIKRPTETIPKTLIYGISIVTVLYLLTNISYLAVLTSQEIIFSDSVGVTWMNRVFPSIQWISSFLISAFLLGSVSCGIVSASRVFYSASQEGEFPSIYSMLNDHHSPAVADIQIVILSSVAIISSSIIYLVKYVSLGSFCINLLQMIGLLKIRYQNPDIPRPYKVWLPFIFGSIALSLFLIFTPVIQSPSIEHVYQVVFLFCGFLCYWLQANLNGHATCFDTITCYCQLLFNISPSEDPEEQKNTSEFDEDKGKRDPIQMSLKGCRTNNGFVQNEDIPEQDPDPGSRDTPQPNAVSIPAPEEPHLKAVRPYAGMPKEVLFQFSGQARYRVPREILFWLTVVSVFLLIGATIAIIVISPKCLDWWQAGPIYQIYPRSFKDSDKDGNGDLKGIQEKLDYITALNIKTLWITSFYKSSLKDFRYAVEDFKEIDPIFGTMKDFENLVAAIHDKGLKLIIDFIPNHTSDKHPWFQSSRTRSGKYTDYYIWHNCTHVNGVTTPPNNWLSVYGNSSWHFDEVRKQCYFHQFLKEQPDLNFRNPAVQEEIKEIITFWLSKGVDGFSFDAVKFLLEAKDLRNEIQVNTSQIPDTVTHYSELYHDFTTTQVGMHDIVRDFRQTMNQYSREPGRYRFMGAEASAESIERTMMYYGLPFIQEADFPFNKYFTTIGTLSGHTVYEVITSWMENMPEGKWPNWMTGGPETPRLTSRVGSEYVNAMHMLLFTLPGTPITYYGEEIGMGDISVTNFNESYDSTTLVSKSPMQWDNSSNAGFTEANHTWLPTNSDYHTVNVDVQKTQPSSALRLYQDLSLLHATELVLSRGWFCLLRDDSHSVVYTRELDGIDNVFLVVLNFGESSTVLNLQGIISDLPPELRIRLSTNSASKGSAVDTRAISLEKGEGLVLEHSTKAPLHQQAAFRDRCFVSSRACYSSALDILYSSC",–,–,–,Km [6]: 3.13 ± 0.57 µM; Km [7]: 34.8 ± 10.6 µM; Km [8]: 2.88 ± 0.37 µM; Km [9]: 39.6 ± 4.3 µM; Km [10]: 2.15 ± 0.35 µM; Km [11]: 2.72 ± 0.44 µM; Km [12]: 2.35 ± 0.30 µM
